The values that follow come from ChEMBL document CHEMBL4417633, “Inhibitory polypeptides specific to WNT inhibitors” (2017).

In assay [1] the target is T1, Dickkopf-related protein 1 (Homo sapiens, UniProt O94907).
T1 sequence (O94907 whole entry): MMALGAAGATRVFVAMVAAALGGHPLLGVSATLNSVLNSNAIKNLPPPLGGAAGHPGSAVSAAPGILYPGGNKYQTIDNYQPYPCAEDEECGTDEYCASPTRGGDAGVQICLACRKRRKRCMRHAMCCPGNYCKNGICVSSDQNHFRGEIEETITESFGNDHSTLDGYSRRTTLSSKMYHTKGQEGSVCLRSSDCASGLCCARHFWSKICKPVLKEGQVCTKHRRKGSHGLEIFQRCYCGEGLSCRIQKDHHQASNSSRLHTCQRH
Nature of the assay: Inhibition of biotin-labeled human recombinant DKK1 assessed as reduction in DKK1 interaction with LRP-6/Fc incubated overnight by chemiluminescence based Alpha-screen assay. A general note: In Alpha technology, singlet oxygen from a donor bead excites a nearby acceptor bead.

In assay [2] the target is T2, Dickkopf WNT-signaling pathway inhibitor 1 (Rattus norvegicus, UniProt A6I0Z0).
T2 sequence (A6I0Z0 whole entry): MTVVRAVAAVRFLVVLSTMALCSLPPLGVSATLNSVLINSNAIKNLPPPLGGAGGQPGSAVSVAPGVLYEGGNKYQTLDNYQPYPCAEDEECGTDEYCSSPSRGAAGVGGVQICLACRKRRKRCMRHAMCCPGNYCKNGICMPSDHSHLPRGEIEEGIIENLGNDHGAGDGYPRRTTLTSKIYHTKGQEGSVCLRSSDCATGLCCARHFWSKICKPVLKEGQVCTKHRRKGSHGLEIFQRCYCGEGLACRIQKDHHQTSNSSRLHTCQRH
Nature of the assay: Inhibition of biotin-labeled rat recombinant DKK1 assessed as reduction in DKK1 interaction with LRP-6/Fc incubated overnight by chemiluminescence based Alpha-screen assay.

Structures are written as SMILES. Where a SMILES comes first, the peptide text is derived from it. Where only a bound is given, the exact number is not on record here.

What is called IC50 is the midpoint of a concentration-inhibition curve. Consider `CC[C@H](C)[C@H](NC(=O)[C@H](CCCCN)NC(=O)[C@H](CC(=O)O)NC(=O)[C@H](C)NC(=O)[C@H](CS)NC(=O)[C@H](CCSC)NC(=O)[C@H](Cc1ccccc1)NC(=O)[C@H](CCC(=O)O)NC(=O)[C@H](CC(N)=O)NC(=O)[C@H](CO)NC(=O)[C@@H]1CCCN1C(=O)[C@@H](N)CS)C(=O)N[C@@H](CS)C(=O)N[C@@H](Cc1ccccc1)C(=O)N1CCC[C@H]1C(=O)N[C@@H](CC(C)C)C(=O)N[C@@H](CO)C(=O)N[C@@H](Cc1ccccc1)C(=O)N[C@@H](CC(C)C)C(=O)N[C@@H](CS)C(=O)N[C@@H](CC(=O)O)C(=O)NCC(=O)N[C@@H](CCC(=O)O)C(=O)N[C@@H](CC(N)=O)C(=O)N[C@@H](CC(=O)O)C(=O)N[C@@H](CS)C(=O)N[C@@H](CC(C)C)C(=O)N[C@@H](CC(=O)O)C(=O)NCC(=O)N[C@@H](CO)C(=O)N[C@@H](CC(=O)O)C(=O)N[C@@H](CCC(=O)O)C(=O)N[C@@H](CC(=O)O)C(=O)N[C@@H](Cc1ccc(O)cc1)C(=O)N[C@@H](CS)C(=O)N1CCC[C@H]1C(=O)N[C@@H](CO)C(=O)N[C@@H](CCCNC(=N)N)C(=O)N[C@H](C(=O)O)[C@@H](C)O` (H-CPSNEFMCADKICFPLSFLCDGENDCLDGSDEDYCPSRT-OH), for which the concentration for half-maximal inhibition (IC50) in assay [1] and in assay [2] was at most 1 nM throughout.
For the compound `CSCC[C@H](NC(=O)[C@@H]1CCCN1C(=O)[C@H](Cc1ccc(O)cc1)NC(=O)[C@H](CS)NC(=O)[C@H](CO)NC(=O)[C@H](CC(N)=O)NC(=O)[C@H](CC(N)=O)NC(=O)[C@H](CC(N)=O)NC(=O)[C@H](CCCNC(=N)N)NC(=O)[C@H](CS)NC(=O)[C@H](CCC(N)=O)NC(=O)[C@H](Cc1ccccc1)NC(=O)[C@H](Cc1ccc(O)cc1)NC(=O)[C@H](CO)NC(=O)[C@H](C)NC(=O)[C@@H]1CCCN1C(=O)[C@@H](N)CS)C(=O)N[C@@H](CCC(=O)O)C(=O)N[C@@H](Cc1c[nH]c2ccccc12)C(=O)N[C@@H](CCCNC(=N)N)C(=O)N[C@@H](CS)C(=O)N[C@@H](CC(=O)O)C(=O)NCC(=O)N[C@@H](Cc1ccccc1)C(=O)N[C@@H](CCC(=O)O)C(=O)N[C@@H](CC(=O)O)C(=O)N[C@@H](CS)C(=O)N[C@@H](CCC(=O)O)C(=O)N[C@@H](CC(=O)O)C(=O)NCC(=O)N[C@@H](CO)C(=O)N[C@@H](CC(=O)O)C(=O)N[C@@H](CCC(=O)O)C(=O)N[C@@H](CCCNC(=N)N)C(=O)NCC(=O)N[C@@H](CS)C(=O)N1CCC[C@H]1C(=O)N[C@@H](Cc1ccc(O)cc1)C(=O)N[C@@H](CCCNC(=N)N)C(=O)N[C@H](C(=O)O)[C@@H](C)O` (H-CPASYFQCRNNNSCYPMEWRCDGFEDCEDGSDERGCPYRT-OH), the IC50 in assay [1] and in assay [2] was at most 1 nM in each case.
`CC[C@H](C)[C@H](NC(=O)[C@H](CC(C)C)NC(=O)[C@@H]1CCCN1C(=O)[C@H](Cc1ccccc1)NC(=O)[C@H](CS)NC(=O)[C@H](CCSC)NC(=O)[C@H](CCCCN)NC(=O)[C@H](CC(=O)O)NC(=O)[C@@H]1CCCN1C(=O)[C@H](CS)NC(=O)[C@H](CCSC)NC(=O)[C@H](Cc1ccccc1)NC(=O)[C@H](CCC(=O)O)NC(=O)[C@H](CC(N)=O)NC(=O)[C@H](CC(C)C)NC(=O)[C@@H]1CCCN1C(=O)[C@@H](N)CS)C(=O)N[C@@H](Cc1ccccc1)C(=O)N[C@@H](CC(C)C)C(=O)N[C@@H](CS)C(=O)N[C@@H](CC(=O)O)C(=O)NCC(=O)N[C@@H](CCC(=O)O)C(=O)N[C@@H](CC(N)=O)C(=O)N[C@@H](CC(=O)O)C(=O)N[C@@H](CS)C(=O)N[C@@H](Cc1cnc[nH]1)C(=O)N[C@@H](CC(=O)O)C(=O)NCC(=O)N[C@@H](CO)C(=O)N[C@@H](CC(=O)O)C(=O)N[C@@H](CCC(=O)O)C(=O)N[C@@H](C)C(=O)N[C@@H](Cc1ccc(O)cc1)C(=O)N[C@@H](CS)C(=O)N1CCC[C@H]1C(=O)N[C@@H](CO)C(=O)N[C@@H](CCCNC(=N)N)C(=O)N[C@H](C(=O)O)[C@@H](C)O` (H-CPLNEFMCPDKMCFPLIFLCDGENDCHDGSDEAYCPSRT-OH): the half-inhibitory concentration (IC50) in assay [1] and in assay [2] was at most 1 nM in each case.
Take `CC[C@H](C)[C@H](NC(=O)[C@H](CC(N)=O)NC(=O)CNC(=O)[C@H](CS)NC(=O)[C@H](CCC(N)=O)NC(=O)[C@H](Cc1ccccc1)NC(=O)[C@H](Cc1ccc(O)cc1)NC(=O)[C@H](CO)NC(=O)[C@@H]1CCCN1C(=O)[C@@H]1CCCN1C(=O)[C@@H](N)CS)C(=O)N[C@@H](CC(N)=O)C(=O)N[C@@H](Cc1cnc[nH]1)C(=O)N[C@@H](CS)C(=O)N[C@@H](Cc1ccc(O)cc1)C(=O)N1CCC[C@H]1C(=O)N[C@@H](CCSC)C(=O)N[C@@H](CCC(=O)O)C(=O)N[C@@H](Cc1c[nH]c2ccccc12)C(=O)N[C@@H](CCCNC(=N)N)C(=O)N[C@@H](CS)C(=O)N[C@@H](CC(=O)O)C(=O)NCC(=O)N[C@@H](Cc1ccccc1)C(=O)N[C@@H](Cc1cnc[nH]1)C(=O)N[C@@H](CC(=O)O)C(=O)N[C@@H](CS)C(=O)N[C@H](C(=O)N[C@@H](CC(=O)O)C(=O)NCC(=O)N[C@@H](CO)C(=O)N[C@@H](CC(=O)O)C(=O)N[C@@H](CCC(=O)O)C(=O)N[C@@H](CCC(N)=O)C(=O)NCC(=O)N[C@@H](CS)C(=O)N1CCC[C@H]1C(=O)N[C@@H](Cc1ccc(O)cc1)C(=O)N[C@@H](CCCNC(=N)N)C(=O)N[C@H](C(=O)O)[C@@H](C)O)C(C)C` (H-CPPSYFQCGNINHCYPMEWRCDGFHDCVDGSDEQGCPYRT-OH): the 50% inhibitory concentration (IC50) in assay [1] and in assay [2] was at most 1 nM in each case.
`CSCC[C@H](NC(=O)[C@@H]1CCCN1C(=O)[C@H](Cc1ccc(O)cc1)NC(=O)[C@H](CS)NC(=O)[C@H](Cc1cnc[nH]1)NC(=O)[C@H](CC(N)=O)NC(=O)[C@H](CC(N)=O)NC(=O)[C@H](CC(N)=O)NC(=O)[C@H](CCCNC(=N)N)NC(=O)[C@H](CS)NC(=O)[C@H](CCC(N)=O)NC(=O)[C@H](Cc1ccccc1)NC(=O)[C@H](Cc1ccc(O)cc1)NC(=O)[C@H](CO)NC(=O)[C@H](C)NC(=O)[C@@H]1CCCN1C(=O)[C@@H](N)CS)C(=O)N[C@@H](CCC(=O)O)C(=O)N[C@@H](Cc1c[nH]c2ccccc12)C(=O)N[C@@H](CCCNC(=N)N)C(=O)N[C@@H](CS)C(=O)N[C@@H](CC(=O)O)C(=O)NCC(=O)N[C@@H](Cc1ccccc1)C(=O)N[C@@H](CCC(N)=O)C(=O)N[C@@H](CC(=O)O)C(=O)N[C@@H](CS)C(=O)N[C@@H](CCC(=O)O)C(=O)N[C@@H](CC(=O)O)C(=O)NCC(=O)N[C@@H](CO)C(=O)N[C@@H](CC(=O)O)C(=O)N[C@@H](CCC(=O)O)C(=O)N[C@@H](CCCCN)C(=O)NCC(=O)N[C@@H](CS)C(=O)N1CCC[C@H]1C(=O)N[C@@H](Cc1ccc(O)cc1)C(=O)N[C@@H](CCCNC(=N)N)C(=O)N[C@H](C(=O)O)[C@@H](C)O` (H-CPASYFQCRNNNHCYPMEWRCDGFQDCEDGSDEKGCPYRT-OH): the 50% inhibitory concentration (IC50) in assay [1] and in assay [2] was 40 to 80 nM each time.
Turning to `CC[C@H](C)[C@H](NC(=O)[C@H](CCCCN)NC(=O)[C@H](CC(=O)O)NC(=O)[C@@H]1CCCN1C(=O)[C@H](CS)NC(=O)[C@H](CCSC)NC(=O)[C@H](Cc1ccccc1)NC(=O)[C@H](CCC(=O)O)NC(=O)[C@H](CC(N)=O)NC(=O)[C@H](CO)NC(=O)[C@@H]1CCCN1C(=O)[C@@H](N)CS)C(=O)N[C@@H](CS)C(=O)N[C@@H](Cc1ccccc1)C(=O)N1CCC[C@H]1C(=O)N[C@@H](CC(C)C)C(=O)N[C@@H](CO)C(=O)N[C@@H](Cc1ccccc1)C(=O)N[C@@H](CC(C)C)C(=O)N[C@@H](CS)C(=O)N[C@@H](CC(=O)O)C(=O)NCC(=O)N[C@@H](CCC(=O)O)C(=O)N[C@@H](CC(N)=O)C(=O)N[C@@H](CC(=O)O)C(=O)N[C@@H](CS)C(=O)N[C@@H](CCC(=O)O)C(=O)N[C@@H](CC(=O)O)C(=O)NCC(=O)N[C@@H](CO)C(=O)N[C@@H](CC(=O)O)C(=O)N[C@@H](CCC(=O)O)C(=O)N[C@@H](CC(=O)O)C(=O)N[C@@H](Cc1ccc(O)cc1)C(=O)N[C@@H](CS)C(=O)N1CCC[C@H]1C(=O)N[C@@H](CO)C(=O)N[C@@H](CCCNC(=N)N)C(=O)N[C@H](C(=O)O)[C@@H](C)O` (H-CPSNEFMCPDKICFPLSFLCDGENDCEDGSDEDYCPSRT-OH), the half-maximal inhibitory concentration (IC50) in assay [1] and in assay [2] was at most 1 nM each time.
As for `CSCC[C@H](NC(=O)[C@@H]1CCCN1C(=O)[C@H](Cc1ccc(O)cc1)NC(=O)[C@H](CS)NC(=O)[C@H](Cc1cnc[nH]1)NC(=O)[C@H](CC(N)=O)NC(=O)[C@H](Cc1ccc(O)cc1)NC(=O)[C@H](CC(N)=O)NC(=O)[C@H](CCCNC(=N)N)NC(=O)[C@H](CS)NC(=O)[C@H](CCCCN)NC(=O)[C@H](Cc1ccccc1)NC(=O)[C@H](Cc1ccc(O)cc1)NC(=O)[C@H](CO)NC(=O)[C@H](C)NC(=O)[C@@H]1CCCN1C(=O)[C@@H](N)CS)C(=O)N[C@@H](CCC(=O)O)C(=O)N[C@@H](Cc1c[nH]c2ccccc12)C(=O)N[C@@H](CCCNC(=N)N)C(=O)N[C@@H](CS)C(=O)N[C@@H](CC(=O)O)C(=O)NCC(=O)N[C@@H](Cc1ccccc1)C(=O)N[C@@H](CCCNC(=N)N)C(=O)N[C@@H](CC(=O)O)C(=O)N[C@@H](CS)C(=O)N[C@@H](CCC(=O)O)C(=O)N[C@@H](CC(=O)O)C(=O)NCC(=O)N[C@@H](CO)C(=O)N[C@@H](CC(=O)O)C(=O)N[C@@H](CCC(=O)O)C(=O)N[C@@H](CCC(=O)O)C(=O)NCC(=O)N[C@@H](CS)C(=O)N1CCC[C@H]1C(=O)N[C@@H](Cc1ccc(O)cc1)C(=O)N[C@@H](CCCNC(=N)N)C(=O)N[C@H](C(=O)O)[C@@H](C)O` (H-CPASYFKCRNYNHCYPMEWRCDGFRDCEDGSDEEGCPYRT-OH), the IC50 in assay [1] and in assay [2] was at most 1 nM each time.
